Test system: khc/+; klc/+ Drosophila larvae
Assay: Suppression of the flipper (tail-flipping) motor dysfunction phenotype in an animal model
Assay type: in vivo, Drosophila melanogaster
Conditions: for larvae effectively "cured" of their motor dysfunction: after accounting for penetrance
Excerpt: A stock of fruit flies (Drosophila melanogaster) was generated that is heterozygous for both KHC and KLC, which encode proteins that associate to form functional kinesin-1, also called conventional kinesin. […] A number of factors that contribute to this incomplete penetrance were identified, including the following: • 1. The flipper phenotype of a given animal appears to be suppressed by the number of larvae that precede the animal in development. That is, if a larva is among the first to develop in a vial of eggs, it is more likely to show the flipper phenotype than if it is one of the last to emerge. • 2. The flipper phenotype appears to be less robust on hard media than it is on soft media. • 3. The phenotype is diminished by physically disturbing the larvae. • 4. The clearest expression of the flipper phenotype is restricted to that phase of the 3rd instar stage of development that follows the appearance of spiracles.
Attempts to accommodate these observations were mad in order to optimize penetrance of the phenotype. Specifically: • 1. Virgin females and males were confined to a single vial for only 2 days; the flies were then transferred to fresh vials for an additional 2 days; and this process was repeated to minimize the number of larvae that would emerge in each vial. • 2. Efforts were taken to minimize handling of the larvae. • 3. Attempts were made to score the phenotype late in the 3rd instar stage of development.
In a non-blinded experiment, compound 16 (Tables 1 and 2) was tested for its ability to suppress the flipper phenotype of khc/+; klc/+ Drosophila larvae (using the animal model described in Example 7), relative to vehicle (DMSO) alone. Specifically khc/+; klc/+ Drosophila larvae were grown in the presence or absence of 0.5 mM compound 16 and scored for motor dysfunction. A total of 151 larvae were scored, 77 in the vehicle-only group and 74 in the vehicle plus compound group. […] The ratio of Flipper to Non-Flipper phenotype observed in the vehicle-only group corresponds to an 81% penetrance of the flipper phenotype in this experiment. […] Note that equivalent conclusions were obtained if, instead of scoring the number of larvae with and without motor dysfunction, the severity of the aberrant movement was analyzed.
This experiment was repeated using a blinded format and a total of 221 larvae were scored. Of the larvae in this study 104 larvae were in the vehicle-only group and 117 larvae were in the treatment group. […] The results of this second study are quite similar to those of the first study: after accounting for the differences in penetrance between the studies, compound 16 effectively “cured” 42% of the larvae of their motor dysfunction in the first experiment, and 43% of the larvae in the second experiment.

SMILES: Cc1c(-c2ccccc2)cc(-c2ccc(C(F)(F)F)cc2)n1-c1ccc(CCCC(=O)O)cc1 [Compound 16, 4-{4-[2-Methyl-3-phenyl-5-(4-trifluoromethyl-phenyl)-pyrrol-1-yl]-phenyl}-butyric acid]
- reduction in flipper phenotype relative to vehicle (blinded repeat, 117 treated vs 104 vehicle larvae, vehicle penetrance 78%, Yates' chi-square p <1x10^-6): highly significant reduction in flipper phenotype
- larvae effectively "cured" of their motor dysfunction (first (non-blinded) experiment, 0.5 mM): 42%
- suppression of the Flipper phenotype relative to vehicle (DMSO) (non-blinded experiment, larvae grown with 0.5 mM compound, 74 treated vs 77 vehicle larvae, vehicle penetrance 81%, Fischer's test p less than 10^-4): significant suppression of the Flipper phenotype
- larvae effectively "cured" of their motor dysfunction (second (blinded) experiment): 43%
